Laboratory results published in patent publication US6355269B1, “Oral compositions of levosimendan” (Orion Corporation, priority 1997, dated 2002).

Legend:
[1] = system: intestinal bacteria; settings: oral administration; by intestinal bacteria; cited from earlier work
[2] = Pharmacokinetic study of levosimendan capsules, single oral dose, in healthy volunteers; assay type: in vivo, human; settings: from oral compositions comprising substantially pure crystalline polymorphic form I
Experimental: Pharmacokinetic parameters of two different polymorphs, (I) and (II), of levosimendan in healthy volunteers after a single oral dose of 2 mg of levosimendan capsule was studied. The formulations of hard gelatin capsules (size 3) A and B were the following:
The small value of Tmax indicates rapid absorption of the drug into plasma.

[3] = system: troponin; settings: racemic mixture; cited from earlier work

Row | SMILES | metabolization in the lower gastrointestinal tract [1] | dissolution and absorption into plasma [2] | calcium dependent binding to troponin [3]
1 | CC1CC(=O)NN=C1c1ccc(NN=C(C#N)C#N)cc1 (single isomer, unassigned; (-)) [levosimendan, (−)-[[4-(1,4,5,6-tetrahydro-4-methyl-6-oxo-3-pyridazinyl)phenyl]hydrazono]propanedinitrile] | susceptible to metabolization in the lower gastrointestinal tract by intestinal bacteria | rapidly dissolved and absorbed into plasma | –
2 | CC1CC(=O)NN=C1c1ccc(NN=C(C#N)C#N)cc1 (racemic) [compound (I), [[4-(1,4,5,6-tetrahydro-4-methyl-6-oxo-3-pyridazinyl)phenyl]hydrazono]propanedinitrile] | – | – | significant calcium dependent binding to troponin
